This is an account of results in PMC8694685 (RSC Advances, 2021).

Each structure is given as a SMILES string.

One data set relates to red blood cells. The data set is described as follows: Hemolysis test. The format is cell-based, mouse. To be noted: 0.15–5 mg mL^−1, 37 °C, 1 hour. On the procedure: The mixture was then centrifuged at 3000 rpm for 10 min. Finally, UV spectrophotometer was used to monitor the absorbance at 541 nm to investigate the hemolysis. Deionized water and 0.9% NaCl were used as the positive and negative control, respectively. The hemolysis ratio was calculated as following: [drawing 4] […]

Data set [1] can be described thus: In vivo pharmacokinetics study, tail vein. To be noted: SD, rat, plasma; intravenous, 17 mg kg^−1 Cur, n = 3. More on the design: species or system SD rats. On the procedure: Pharmacokinetics were studied in SD rats. SD rats were randomly divided into three groups with each group of three rats. […] Blood samples (0.5 mL) were extracted from the rat orbital sinus into heparinized centrifuge tubes at 3, 5, 10, 15, 30, 45, 60, 120 min and then centrifuged at 8000 rpm for 5 min to obtain the upper plasma. After that, Cur in plasma samples were extracted by adding ethyl acetate and vertexing for 5 min, then centrifuged at 5000 rpm for 5 min to get supernatant. Finally, the amount of Cur in the supernatant was measured by high-performance liquid chromatography (HPLC) based on established analytical method (SI). Various pharmacokinetic parameters (AUC, MRT, t1/2, Cmax, CL, and V) were calculated according to the analysis of DAS3.0 software.

The next data set deals with liver fibrosis. Description: In vivo pharmacodynamic experiment, CCl4 liver fibrosis model. As to conditions: CCl4 mice, tail vein twice a week for eight weeks, Cur 17 mg kg^−1. On the procedure: The mice were divided into five groups with five in each group randomly. The liver fibrosis model was established by injecting carbon tetrachloride (CCl4, 40% in olive oil, 1 mL kg^−1) intraperitoneally twice a week for four weeks. The mice were only administrated the same dosage of olive oil in control group. […] After treatment through veil tail, the mice were sacrificed and blood and livers were collected for the following study. After embedding in paraffin, the liver samples were cut into 5 μm slices. Then, liver slices were stained with hematoxylin–eosin staining (H&E) and Sirius Red staining solution for 2 h. After dehydration and fixation, the slices were observed and photographed by microscope.

The nature of data set [2]: In vitro release of curcumin, membrane dialysis. The format is physicochemical. To be noted: 30% ethanol in PBS pH7.4, 37 °C. As for the experimental part:
The membrane dialysis method was used for the drug release profile of CTPP–PEG–PCT. […] The end-sealed dialysis bag was placed in 30% ethanol in PBS (0.1 M, pH7.4) was used as dissolution medium at 37 °C, and medium was collected at determined time point. The amount of Cur released in the medium was monitored by UV-vis spectroscopy, and the experiments were repeated for three times.

A word on the AUC(0-inf): it is the area under the concentration-time curve extrapolated to infinity. The low end stands for low exposure, the high end for high exposure. By AUC(0-t) is commonly meant exposure summed from dosing to a finite time, without extrapolation to infinity. By Cmax is commonly meant the peak of the concentration-time curve. For orientation: MRT means a mean duration of stay, worked out from the concentration-time curve. The term clearance denotes a measure of how efficiently the substance is removed, as volume per time. Read a low clearance as a low capacity for elimination. By half-life is commonly meant the time needed for the level to fall by half in the phase considered. A high value points to slow decline. For the compound `COc1cc(/C=C/C(=O)CC(=O)/C=C/c2ccc(O)c(OC)c2)ccc1O` [Cur, Curcumin], the hemolysis ratio entry in the data set with red blood cells is given as “less than 5%”. In data set [1], the AUC(0-inf) is 5610 ng·h/mL, the AUC(0-t) was 5280 ng·h/mL, the concentration peaked (Cmax) at 12900 ± 1510 ng/mL and the MRT is 45.9 min. In data set [1], this compound gave a clearance of 50 ± 6 mL/min/kg and a half-life of 48.1 ± 14.8 min. Further, in the data set on liver fibrosis, the “serum levels of AST and ALT vs saline group” value was “decreased significantly”. For the same compound, the “in vitro drug release behaviour” value in data set [2] is on record as “released quickly”.
